Experimental data published in patent US20220204497A1, “NOVEL COMPOUND HAVING ANTICANCER ACTIVITY, AND METHOD FOR PRODUCING SAME” (MEDICINAL BIOCONVERGENCE RESEARCH CENTER, priority 2019, published 2022).

Columns and labels:
AIMP2-DX2 = target: T1, AIMP2-DX2 (Homo sapiens, UniProt Q13155); assay: DX2-nanoluciferase assay (DX2 expression change) in transfected A549 cells; details: for inhibition at 40 µM: A549, 4 h, read-out: DX-Nanoluciferase activity (40 μM), 40 μM, 4 hours treatment, A549 cells transfected with nanoluciferase-DX2
T1 sequence (Q13155 1-251 isoform Q13155-2): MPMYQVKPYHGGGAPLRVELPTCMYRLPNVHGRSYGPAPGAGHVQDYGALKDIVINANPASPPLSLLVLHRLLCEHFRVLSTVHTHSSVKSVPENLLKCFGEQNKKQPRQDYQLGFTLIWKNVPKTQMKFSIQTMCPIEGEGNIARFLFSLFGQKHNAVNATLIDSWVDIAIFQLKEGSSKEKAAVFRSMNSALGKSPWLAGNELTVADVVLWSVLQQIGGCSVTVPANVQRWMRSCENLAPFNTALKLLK
Experimental: After cloning DX2 into a plasmid expressing nanoluciferase, the plasmid was transfected into A549 cells. Transfected cells were seeded 1×10^4 per well in a 96-well plate and stabilized for 12 hours. […] Cell viability was measured by the MTT method after 72 hours of treatment with each concentration of the compound in A549 cells.

A549 cells = assay: Cell viability by MTT method in A549 cells; format: cell-based; parameters: concentration or dose not given beside the values; details: 72 hours treatment
[1] = inhibitory effect on AIMP2-DX2 expression

Row | SMILES | inhibition at 40 µM (AIMP2-DX2; [1]) [%] | Cell Viability (% inhibition) (A549) (A549 cells) [%] | DX-Nanoluciferase activity (40 μM) (AIMP2-DX2; 40 μM, 4 hours treatment, A549 cells transfected with nanoluciferase-DX2, inhibitory effect on AIMP2-DX2 expression) | DX-Nanoluciferase activity (10 μM) (AIMP2-DX2; 10 μM, 4 hours treatment, A549 cells transfected with nanoluciferase-DX2)
1 | Cc1ccc(S(=O)(=O)N[C@@H](Cc2c[nH]c3ccccc23)C(=O)Nc2ccc(N3CCOCC3)c(F)c2)cc1 [Compound 77, (S)—N-(3-fluoro-4-morpholinophenyl)-3-(1H-indol-3-yl)-2-(4-methylphenylsulfonamido)propanamide] | 23.9 ± 7.01 | 80.59 ± 1.49 |  | 
2 | O=C(Nc1ccc(N2CCOCC2)cc1)[C@H](Cc1c[nH]c2ccccc12)NS(=O)(=O)c1ccc([N+](=O)[O-])cc1 [Compound 78, (S)-3-(1H-indol-3-yl)-N-(4-morpholinophenyl)-2-(4-nitrophenylsulfonamido)propanamide] | 44.5 ± 12.7 | 67.08 ± 1.45 |  | 
3 | CC(C)c1ccc(S(=O)(=O)N[C@@H](Cc2c[nH]c3ccccc23)C(=O)Nc2ccc(N3CCOCC3)cc2)cc1 [Compound 81, (S)-3-(1 Indol-3-yl)-2-(4-isopropylphenylsulfonamido)-N-(4 morpholinophenyl)propanamide] |  | 73.98 ± 0.39 | 77.74 ± 6.75 | 
4 | COc1ccc(-c2csc(NC(=O)[C@H](Cc3c[nH]c4ccccc34)NS(=O)(=O)c3ccc(C(C)C)cc3)n2)cc1 [Compound 82, (S)-3-(1H-indol-3-yl)-2-(4-isopropylphenylsulfonamido)-N-(4-(4-methoxyphenyl)thiazol-2-yl)propanamide] | 29.3 ± 2.7 | 96.64 ± 0.09 |  | 
5 | O=C(O)[C@H](Cc1c[nH]c2ccccc12)NS(=O)(=O)c1ccc(Br)cc1 [Compound 85, (S)-2-(4-Bromophenylsulfonamido)-3-(1H-indol-3-yl)propanoic acid] | 20.2 ± 1.65 | 10.28 ± 3.54 |  | 
6 | COc1ccc(-c2cc(NC(=O)[C@H](CC(C)C)NS(=O)(=O)c3ccc(C)cc3)no2)cc1 [Compound 88, (S)—N-(5-(4-methoxyphenyl)isoxazol-3-yl)-4-methyl-2-(4-methylphenylsulfonamido)pentanamide] | 57 ± 8.83 | 46.96 ± 4.60 |  | 
7 | COc1ccc(-c2cc(NC(=O)[C@H](CC(C)C)NS(=O)(=O)c3ccc(C)cc3)on2)cc1 [Compound 89, (S)—N-(3-(4-methoxyphenyl)isoxazol-5-yl)-4-methyl-2-(4-methylphenylsulfonamido)pentanamide] | 47.5 ± 13.3 | 98.73 ± 0.92 |  | 
8 | Cc1ccc(S(=O)(=O)N[C@@H](CC(C)C)C(=O)Nc2nc(-c3ccc(C(F)(F)F)cc3)cs2)cc1 [Compound 90, (S)-4-Methyl-2-(4-methylphenylsulfonamido)-N-(4-(4-(trifluoromethyl)phenyl)thiazol-2-yl)pentanamide] | 65.4 ± 4.13 | 86.36 ± 0.64 |  | 
9 | COc1ccc(-c2csc(NC(=O)[C@H](CC(C)C)NS(=O)(=O)c3ccc(C)cc3)n2)cc1OC [Compound 91, (S)—N-(4-(3,4-dimethoxyphenyl)thiazol-2-yl)-4-methyl-2-(4-methylphenylsulfonamido)pentanamide] | 16.4 ± 8.65 | 87.36 ± 2.13 |  | 
10 | Cc1ccc(S(=O)(=O)N[C@@H](CC(C)C)C(=O)Nc2nc(-c3ccc(F)cc3)cs2)cc1 [Compound 94, (S)—N-(4-(4-fluorophenyl)thiazol-2-yl)-4-methyl-2-(4-methylphenylsulfonamido)pentanamide] | 11.5 ± 7.25 | 101.42 ± 0.79 |  | 
11 | Cc1ccc(S(=O)(=O)N[C@@H](CC(C)C)C(=O)Nc2nc(-c3ccc(O)cc3)cs2)cc1 [Compound 96, (S)—N-(4-(4-hydroxyphenyl)thiazol-2-yl)-4-methyl-2-(4-methylphenylsulfonamido)pentanamide] | 36.8 ± 9.16 | 93.07 ± 5.89 |  | 
12 | Cc1ccc(-c2csc(NC(=O)[C@H](CC(C)C)N(C)S(=O)(=O)c3ccccc3)n2)cc1 [Compound 97, (S)-4-Methyl-2-(methylphenylsulfonamido)-N-(4p-tolylthiazol-2-yl)pentanamide] | 15.1 ± 2.59 | 67.10 ± 7.93 |  | 
13 | Cc1ccc(S(=O)(=O)N[C@@H](Cc2ccc(OS(=O)(=O)c3ccc(C)cc3)cc2)C(=O)Nc2ccc(N3CCOCC3)cc2)cc1 [Compound 101, (S)-4-(2-(4-Methylphenylsulfonamido)-3-(4-morpholinophenylamino)-3-oxopropyl)phenyl 4-methylbenzenesulfonate] | 10.9 ± 4.88 | 35.10 ± 5.95 |  | 
14 | CON(C)C(=O)[C@H](CC(C)C)NS(=O)(=O)c1ccc(C)cc1 [Compound 103, (S)—N-methoxy-N,4-dimethyl-2-(4-methylphenylsulfonamido)pentanamide] | 63.7 ± 14.3 | −5.00 ± 6.69 |  | 
15 | CON(C)C(=O)[C@H](Cc1c[nH]c2ccccc12)NS(=O)(=O)c1ccc(C)cc1 [Compound 104, (S)-3-(1H-indol-3-yl)-N-methoxy-N-methyl-2-(4-methylphenylsulfonamido)propanamide] | 64.3 ± 5.96 | 6.26 ± 7.67 |  | 
16 | Cc1ccc(S(=O)(=O)N[C@@H](Cc2c[nH]c3ccccc23)C(=O)N2CCOCCOCCOCC2)cc1 [Compound 105, (S)—N-(3-(1H-indol-3-yl)-1-oxo-1-(1,4,7-trioxa-10-azacyclododecan-10-yl)propan-2-yl)-4-methylbenzenesulfonamide] | 57.1 ± 1.56 | 29.36 ± 7.43 |  | 
17 | CC(C)(C)c1ccc(S(=O)(=O)N[C@@H](Cc2c[nH]c3ccccc23)C(=O)Nc2ccc(N3CCOCC3)cc2)cc1 [Compound 106, (S)-2-(4-tert-Butylphenylsulfonamido)-3-(1H-indol-3-yl)-N-(4-morpholinophenyl)propan amide] |  | 17.13 ± 5.35 |  | 68.14 ± 9.57 (10 μM)
18 | O=C(Nc1nc(-c2ccccc2Cl)cs1)[C@H](Cc1c[nH]c2ccccc12)NS(=O)(=O)c1ccc(Br)cc1 [Compound 107, (S)-2-(4-Bromophenylsulfonamido)-N-(4-(2-chlorophenyl)thiazol-2-yl)-3-(1H-indol-3-yl)propanamide] | 37 ± 12.5 | 59.19 ± 2.09 |  | 

Now from value to compound, other results behind:

Row | inhibition at 40 µM (AIMP2-DX2; [1]) [%] | SMILES | Cell Viability (% inhibition) (A549) (A549 cells) [%] | DX-Nanoluciferase activity (40 μM) (AIMP2-DX2; 40 μM, 4 hours treatment, A549 cells transfected with nanoluciferase-DX2, inhibitory effect on AIMP2-DX2 expression) | DX-Nanoluciferase activity (10 μM) (AIMP2-DX2; 10 μM, 4 hours treatment, A549 cells transfected with nanoluciferase-DX2)
19 | 30.6 ± 15.3 | O=C(Nc1ccc(N2CCOCC2)cc1)[C@H](Cc1c[nH]c2ccccc12)NS(=O)(=O)c1ccc(Br)cc1 [Compound 79, (S)-2-(4-Bromophenylsulfonamido)-3-(1H-indol-3-yl)-N-(4-morpholinophenyl)propanamide] | 78.31 ± 1.91 |  | 
20 | 44.9 ± 13.3 | COc1ccc(S(=O)(=O)N[C@@H](Cc2c[nH]c3ccccc23)C(=O)Nc2ccc(N3CCOCC3)cc2)cc1 [Compound 80, (S)-3-(1H-indol-3-yl)-2-(4-methoxyphenylsulfonamido)-N-(4-morpholinophenyl)propanamide] | 38.64 ± 1.03 |  | 
21 | 17.4 ± 3.23 | Cc1ccc(S(=O)(=O)N[C@@H](Cc2c[nH]c3ccccc23)C(=O)Nc2nc(C)cs2)cc1 [Compound 83, (S)-3-(1H-indol-3-yl)-2-(4-methylphenylsulfonamido)-N-(4-methylthiazol-2-yl)propanamide] | 97.43 ± 2.01 |  | 
22 | -15.8 ± 6.29 | Cc1ccc(S(=O)(=O)N[C@@H](Cc2c[nH]c3ccccc23)C(=O)Nc2nc3ccccc3s2)cc1 [Compound 84, (S)—N-(benzo[d]thiazol-2-yl)-3-(1H-indol-3-yl)-2-(4-methylphenylsulfonamido)propanamide] | 20.93 ± 11.89 |  | 
23 | 37.7 ± 6.09 | Cc1ccc(S(=O)(=O)N[C@@H](CC(C)C)C(=O)Nc2ncc(N3CCOCC3)s2)cc1 [Compound 86, (S)-4-Methyl-2-(4-methylphenylsulfonamido)-N-(5-morpholinothiazol-2-yl)pentanamide] | 20.70 ± 1.43 |  | 
24 | 50.2 ± 7.05 | COc1ccc(-c2nnc(NC(=O)[C@H](CC(C)C)NS(=O)(=O)c3ccc(C)cc3)s2)cc1 [Compound 87, (S)—N-(5-(4-methoxyphenyl)-1,3,4-thiadiazol-2-yl)-4-methyl-2-(4-methylphenylsulfonamido)pentanamide] | 36.61 ± 3.85 |  | 
25 | 31.5 ± 6.84 | Cc1ccc(S(=O)(=O)N[C@@H](CC(C)C)C(=O)Nc2nc(-c3ccc(F)cc3Br)cs2)cc1 [Compound 92, (S)—N-(4-(2-bromo-4-fluorophenyl)thiazol-2-yl)-4-methyl-2-(4-methylphenylsulfonamido)pentanamide] | 100.05 ± 1.22 |  | 
26 | 22.5 ± 3.96 | Cc1ccc(S(=O)(=O)N[C@@H](CC(C)C)C(=O)Oc2ccc(-c3csc(N)n3)cc2)cc1 [Compound 93, (S)-4-(2-Aminothiazol-4-yl)phenyl 4-methyl-2-(4-methylphenylsulfonamido)pentanoate] | 48.85 ± 9.03 |  | 
27 | 22.6 ± 5.29 | Cc1ccc(S(=O)(=O)N[C@@H](CC(C)C)C(=O)Nc2nc(-c3ccc(OC(F)(F)F)cc3)cs2)cc1 [Compound 95, (S)-4-Methyl-2-(4-methylphenylsulfonamido)-N-(4-(4-(trifluoromethoxy)phenyl)thiazol-2-yl)pentanamide] | 92.97 ± 0.09 |  | 
28 | 27.2 ± 5.87 | COc1ccc(-c2csc(NC(=O)[C@H](Cc3c[nH]cn3)NS(=O)(=O)c3ccc(Br)cc3)n2)cc1 [Compound 102, (S)-2-(4-Bromophenylsulfonamido)-3-(1H-Imidazol-4-yl)-N-(4-(4-methoxyphenyl)thiazol-2-yl)propanamide] | 91.03 ± 6.44 |  | 
